Laboratory results as given in patent publication US11168052B2, “Carbamate derivative compounds, processes for preparing them and their uses” (BIO-PHARM SOLUTIONS CO., LTD., priority 2016, dated 2021).

What was measured:
Format in all cases: in vivo, Sprague-Dawley rats
[1] = tested on: Lithium-pilocarpine induced seizure in rats; experiment: Lithium-pilocarpine induced epilepsy test (LI-PILO), prevention test
In short: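 Male Sprague-Dawley rats (175 g) received lithium chloride 127 mg/kg i.p., then pilocarpine 30-43 mg/kg i.p. 18-20 h later, with methyl-scopolamine 2 mg/kg given 30 min before pilocarpine. Test drugs in 20% Tween80 were given i.p. 0.5-4 h beforehand (n=6). Protection meant no Racine grade 3-5 seizure over 90 min, and ED50 was determined at peak time.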

[2] = tested on: Post operation-induced pain model in rats; experiment: Antiallodynic activity on post operative-induced pain model (PO), von Frey test; settings: dose 200 mg/kg, von Frey paw withdrawal threshold relative to sham
Text: Male Sprague-Dawley rats (Orient Bio, Korea, 230-250g) were habituated at least 3 days before surgery, and were allowed free access to food and water throughout the experimentation. Room temperature and humidity were maintained at 24±2 and 50±10%, respectively. The process of performing the post-operation model's surgery was adapted from Brennan et al (1996). At first, rats with allodynia (threshold valueless than 8 g) were excluded in Pre-von Frey Test. During the post-operation surgery, rats were anesthetized under gaseous anesthesia with 2% isoflurane. The rat was placed, lying face down, on 37 degree warm plate to prevent against hypothermia. The ipsilateral plantar aspect (left side) of the hind paw was prepared in a sterile manner with a 10% povidone-iodine solution. […]
For efficacy measure, the threshold value of group C was assigned 100% efficacy, and the percentage of the threshold values of group A compared to group C (for each different dose level) were calculated as the efficacies. Base on these efficacy values, ED50 was calculated using log fitting. […]
For pain threshold test, all animals were placed in a stainless steel meshed chamber and habituated for 30 min in the test cage. The tactile sensitivity of the ipsilateral hind paw was measured using the up-and-down method (Dixon, 1980) with seven von Frey monofilaments (0.4, 1, 2, 4, 6, 8, and 15 g) using 3 trials. […]

[3] = tested on: Lithium-pilocarpine induced seizure in rats; experiment: Lithium pilocarpine model (inter); settings: Rattus norvegicus
Description: Male Sprague-Dawley rats (purchased from Orient Bio Inc. Korea) of body weight 175 grams were used for these studies and 3 rats per cage were housed for 4-5 days. On the day prior to SE, rats received 127 mg/kg lithium chloride (Sigma, St. Louis, Mo., U.S.A.) intraperitoneally (i.p.). Approximately 18-20 h following this treatment, rats were given an i.p. injection of the concentration capable of inducing 97% intermittent convulsions pilocarpine(Sigma, 30-43 mg/kg). An i.p. injection of 2 mg/kg methyl-scopolamine (Sigma) was administered 30 min prior to pilocarpine to block the effects of the muscarinic agonist on peripheral cholinergic receptors. Test drugs were dissolved in 20% tween80 (Sigma).
The drugs were administered intraperitoneally (i.p.) in a volume of 2 μl/g body weight. Pharmacological effects of all of the test materials were evaluated to compare test groups (n=6) with a control group (n=6). Control group was administered vehicle only. The efficacy was measured 0.5, 1, 2, or 4 hours after the administration of the test material. The time point that the most animals were protected was defined as peak time and the ED50 was determined at peak time. The animals were then transferred to observation cages and observed continuously for 90 min Seizure was elicited in approximately 95% of the control group. […]

corneally kindled rats = experiment: Corneal kindling (CK) rat model; settings: po
Text: Male Sprague-Dawley rats (purchased from Orient Bio Inc. Korea) of body weight 85-100 g were used for these studies. The MES test using the electroshock seizure apparatus designed by Rodent Shocker Type221 (Hugo Sachs Elektronik, Germany). The kindled rat models were electrically stimulated (8 mA, 60 Hz, 2 s, corneal electrodes) twice daily for 21 days until stage 5 seizure scored by Racine's scale (Racine, 1972) were evoked. The kindled rats were fasted and adapted to test condition, for at least 1 hour before the administration of test material. The drugs were administered orally (p.o.) in a volume of 4 μl/g body weight. The corneally kindled rat model test is a model for generalized […] seizures or bipolar disorder and identifies the compound which prevents seizure or bipolar disorder spread. The shock level was set at 8 mA, 60 Hz and the duration was set at 2 s. A drop of 0.9% saline was placed in each eye, the electrodes were placed over the eyes, and the shock was administered immediately. Pharmacological effects of the test materials were evaluated to compare the test groups (n=6) with a control group (n=6). Control group was administrated vehicle, only. The peak time was determined by administration test material's random dose for 0.5, 1, 2, 4 hour. The time that the most protect was defined peak time and ED50 was determined by other dose administration at peak time. […]

Row | Compound | ED50 ([1]; Rattus norvegicus, ip, prevention, read-out: Lithium pilocarpine model (pre) ED50) | Post Operation Efficacy (% of sham threshold) [2] | ED50 [3] | ED50 (corneally kindled rats) | Lithium pilocarpine model (pre) efficacy % ([1]; i.p., dose 50 mg/kg)
1 | NC(=O)O[C@@H]1CCc2cccc(Cl)c2[C@@H]1O [Example 1, (1S, 2R)-8-chloro-1-hydroxy-1,2,3,4-tetrahydronaphthalen-2-yl carbamate] | 22 mg/kg | 200 (29.8%) | 24.5 mg/kg | 7.5 mg/kg | 
2 | NC(=O)O[C@@H]1c2c(Cl)cccc2CC[C@@H]1O [Example 19, (1R, 2S)-8-chloro-2-hydroxy-1,2,3,4-tetrahydronaphthalen-1-yl carbamate] |  |  |  |  | 50%
